Experimental data taken from ChEMBL document CHEMBL4371076 (J Med Chem, 2019).
pIC50: −log10 of the molar value. Each block holds one compound with its values, some of them ahead of it. Activity calls are given as the source filed them.

Columns and labels:
[1] = Metabolic stability in mouse liver microsomes assessed as parent compound remaining at 0.5 uM after 10 mins; format: ADME, Microsome; conditions: read-out: Stability
[2] = Fraction unbound in mouse plasma; format: ADME, cell-free
[3] = biological target: Sodium channel protein type 5 subunit alpha (Homo sapiens, UniProt Q14524); test: Inhibition of human Nav1.5 expressed in HEK293 cells after 600 secs at -50 mV holding potential by ion works barracuda population patch clamp method; format: cell-based
[4] = biological target: Sodium channel protein type 9 subunit alpha (Homo sapiens, UniProt Q15858); test: Inhibition of recombinant human Nav1.7 expressed in HEK293 cells assessed as dissociation time constant at -120 mV holding potential by patch clamp electrophysiology method; format: cell-based
Mus musculus [5] = test: Analgesic activity in CD1 mouse model of formalin-induced nociception assessed as reduction in formalin-evoked paw flinching/licking response during first phase at 30 mg/kg, po pretreated for 30 mins followed by formalin treatment and measured during first 5 mins post formalin injection; format: functional, organism-based
Mus musculus [6] = test: Analgesic activity in CD1 mouse model of formalin-induced nociception assessed as reduction in formalin-evoked paw flinching/licking response during second phase at 30 mg/kg, po pretreated for 30 mins followed by formalin treatment and measured during 15 to 45 mins post formalin injection; format: functional, organism-based
[7] = Plasma concentration in CD1 mouse model of formalin-induced nociception at 30 mg/kg, po; format: ADME, organism-based; conditions: read-out: Cp, in vivo
[8] = Toxicity in CD1 mouse model of formalin-induced nociception assessed as hypothermia at 30 mg/kg, po; format: organism-based; conditions: in vivo
[9] = Unbound drug level in DRG neurons of CD1 mouse model of formalin-induced nociception at 30 mg/kg, po; format: ADME, organism-based, DRG neuron; conditions: in vivo
[10] = Fraction unbound in rat DRG neurons; format: ADME
[11] = Drug uptake in DRG neurons of CD1 mouse model of formalin-induced nociception at 30 mg/kg, po; format: ADME, organism-based, DRG neuron; conditions: in vivo, read-out: Drug uptake
Mus musculus [12] = species on record: Mus musculus; test: Reduction in mechanoreceptor-mediated afferent transmission in mouse sural nerve assessed as decrease in mechanically elicited afferent firing at 30 to 100 uM measured at 20 mins post dose at 1.6 to 980 mN threshold pressure; format: functional, tissue-based
Mus musculus [13] = test: Reduction in mechanoreceptor-mediated afferent transmission in mouse assessed as effect on sural nerve mechanosensitivity by measuring decrease in mechanically elicited afferent firing at 30 mg/kg, ip measured at 90 to 120 mins post dose at 98 to 980 mN threshold pressure; format: functional, organism-based
[14] = Unbound plasma concentration in CD1 mouse model of formalin-induced nociception at 30 mg/kg, po; format: ADME, organism-based; conditions: in vivo
[15] = biological target: T1, Nuclear receptor subfamily 1 group I member 2 (Homo sapiens, UniProt O75469); test: Inhibition of PXR (unknown origin); format: ADME
T1 sequence (O75469 whole entry): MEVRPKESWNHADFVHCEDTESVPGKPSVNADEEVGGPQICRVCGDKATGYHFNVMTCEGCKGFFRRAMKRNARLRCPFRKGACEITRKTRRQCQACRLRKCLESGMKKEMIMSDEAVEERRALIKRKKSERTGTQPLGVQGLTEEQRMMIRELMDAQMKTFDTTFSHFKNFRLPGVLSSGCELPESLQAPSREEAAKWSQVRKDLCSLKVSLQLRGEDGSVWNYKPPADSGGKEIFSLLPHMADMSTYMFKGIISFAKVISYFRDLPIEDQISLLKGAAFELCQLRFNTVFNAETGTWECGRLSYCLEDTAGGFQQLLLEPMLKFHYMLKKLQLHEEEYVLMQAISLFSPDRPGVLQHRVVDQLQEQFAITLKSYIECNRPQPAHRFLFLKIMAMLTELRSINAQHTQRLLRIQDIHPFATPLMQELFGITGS

Cytochrome P450 2D6 = Cytochrome P450 2D6 (Homo sapiens, UniProt P10635); test: Time-dependant inhibition of CYP2D6 in human liver microsomes; format: ADME
[16] = Plasma concentration in CD1 mouse model of chronic constriction injury-induced cold allodynia at 30 mg/kg, ip dosed at 5 weeks post surgery and measured 60 mins post dose; format: ADME, organism-based
[17] = Plasma concentration in CD1 mouse model of chronic constriction injury-induced cold allodynia at 10 mg/kg, ip dosed at 5 weeks post surgery and measured 60 mins post dose; format: ADME, organism-based
[18] = Toxicity in CD1 mouse model of formalin-induced nociception assessed as prostration or sedation at 30 mg/kg, ip; format: organism-based; conditions: in vivo
[19] = Unbound plasma concentration in CD1 mouse model of chronic constriction injury-induced cold allodynia at 3 mg/kg, ip dosed at 5 weeks post surgery and measured 60 mins post dose; format: ADME, organism-based; conditions: in vivo, 1 h
[20] = Drug uptake in DRG neurons of CD1 mouse model of formalin-induced nociception at 30 mg/kg, ip; format: ADME, organism-based, DRG neuron; conditions: in vivo, read-out: Drug uptake
[21] = biological target: Sodium channel protein type 3 subunit alpha (Homo sapiens, UniProt Q9NY46); test: Inhibition of human Nav1.3 expressed in HEK293 cells after 600 secs at -60 mV holding potential by ion works barracuda population patch clamp method; format: cell-based
Mus musculus [22] = test: Analgesic activity in CD1 mouse model of formalin-induced nociception assessed as reduction in formalin-evoked paw flinching/licking response during second phase at 30 mg/kg, ip pretreated for 30 mins followed by formalin treatment and measured during 15 to 45 mins post formalin injection; format: functional, organism-based
[23] = Unbound plasma concentration in CD1 mouse model of chronic constriction injury-induced cold allodynia at 10 mg/kg, ip dosed at 5 weeks post surgery and measured 60 mins post dose; format: ADME, organism-based; conditions: in vivo, 1 h
[24] = Unbound drug level in DRG neurons of CD1 mouse model of formalin-induced nociception at 30 mg/kg, ip; format: ADME, organism-based, DRG neuron; conditions: in vivo
Mus musculus [25] = test: Analgesic activity in CD1 mouse model of formalin-induced nociception assessed as reduction in formalin-evoked paw flinching/licking response during first phase at 30 mg/kg, ip pretreated for 30 mins followed by formalin treatment and measured during first 5 mins post formalin injection; format: functional, organism-based
[26] = biological target: Sodium channel protein type 2 subunit alpha (Homo sapiens, UniProt Q99250); test: Inhibition of human Nav1.2 expressed in HEK293 cells after 600 secs at -60 mV holding potential by ion works barracuda population patch clamp method; format: cell-based
[27] = Toxicity in CD1 mouse model of formalin-induced nociception assessed as hypothermia at 30 mg/kg, ip; format: organism-based; conditions: in vivo
Mus musculus [28] = test: Antinociceptive activity in CD1 mouse model of chronic constriction injury-induced cold allodynia assessed as increase in latency in response to cold at 30 mg/kg, ip dosed 30 mins before testing starting at 5 weeks after surgery relative to control; format: functional
Mus musculus [29] = test: Analgesic activity in CD1 mouse model of formalin-induced nociception assessed as reduction in formalin-evoked paw flinching/licking response during second phase at 3 to 10 mg/kg, ip pretreated for 30 mins followed by formalin treatment and measured during 15 to 45 mins post formalin injection; format: functional, organism-based
Mus musculus [30] = species on record: Mus musculus; test: Reduction in mechanoreceptor-mediated afferent transmission in mouse sural nerve assessed as decrease in mechanically elicited afferent firing at 10 to 30 uM measured at 20 mins post dose at 1.6 to 980 mN threshold pressure; format: functional, tissue-based
[31] = biological target: Sodium channel protein type 4 subunit alpha (Homo sapiens, UniProt P35499); test: Inhibition of human Nav1.4 expressed in HEK293 cells after 600 secs at -60 mV holding potential by ion works barracuda population patch clamp method; format: cell-based

Cytochrome P450 2D6, sequence (P10635 whole entry): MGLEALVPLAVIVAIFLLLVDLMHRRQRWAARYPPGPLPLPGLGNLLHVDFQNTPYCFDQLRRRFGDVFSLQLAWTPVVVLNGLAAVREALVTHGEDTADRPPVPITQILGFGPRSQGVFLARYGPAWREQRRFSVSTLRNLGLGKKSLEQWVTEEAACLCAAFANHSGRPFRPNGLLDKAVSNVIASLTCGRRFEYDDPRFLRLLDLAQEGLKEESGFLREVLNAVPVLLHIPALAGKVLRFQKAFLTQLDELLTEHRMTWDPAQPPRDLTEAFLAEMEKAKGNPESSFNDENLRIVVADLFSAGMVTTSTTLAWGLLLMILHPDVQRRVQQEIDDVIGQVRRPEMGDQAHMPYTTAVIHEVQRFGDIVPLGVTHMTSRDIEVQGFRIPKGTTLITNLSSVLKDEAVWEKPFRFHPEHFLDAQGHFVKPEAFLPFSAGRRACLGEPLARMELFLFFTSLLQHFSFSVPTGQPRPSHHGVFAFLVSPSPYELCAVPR
Sodium channel protein type 9 subunit alpha, sequence (Q15858 whole entry, looked up): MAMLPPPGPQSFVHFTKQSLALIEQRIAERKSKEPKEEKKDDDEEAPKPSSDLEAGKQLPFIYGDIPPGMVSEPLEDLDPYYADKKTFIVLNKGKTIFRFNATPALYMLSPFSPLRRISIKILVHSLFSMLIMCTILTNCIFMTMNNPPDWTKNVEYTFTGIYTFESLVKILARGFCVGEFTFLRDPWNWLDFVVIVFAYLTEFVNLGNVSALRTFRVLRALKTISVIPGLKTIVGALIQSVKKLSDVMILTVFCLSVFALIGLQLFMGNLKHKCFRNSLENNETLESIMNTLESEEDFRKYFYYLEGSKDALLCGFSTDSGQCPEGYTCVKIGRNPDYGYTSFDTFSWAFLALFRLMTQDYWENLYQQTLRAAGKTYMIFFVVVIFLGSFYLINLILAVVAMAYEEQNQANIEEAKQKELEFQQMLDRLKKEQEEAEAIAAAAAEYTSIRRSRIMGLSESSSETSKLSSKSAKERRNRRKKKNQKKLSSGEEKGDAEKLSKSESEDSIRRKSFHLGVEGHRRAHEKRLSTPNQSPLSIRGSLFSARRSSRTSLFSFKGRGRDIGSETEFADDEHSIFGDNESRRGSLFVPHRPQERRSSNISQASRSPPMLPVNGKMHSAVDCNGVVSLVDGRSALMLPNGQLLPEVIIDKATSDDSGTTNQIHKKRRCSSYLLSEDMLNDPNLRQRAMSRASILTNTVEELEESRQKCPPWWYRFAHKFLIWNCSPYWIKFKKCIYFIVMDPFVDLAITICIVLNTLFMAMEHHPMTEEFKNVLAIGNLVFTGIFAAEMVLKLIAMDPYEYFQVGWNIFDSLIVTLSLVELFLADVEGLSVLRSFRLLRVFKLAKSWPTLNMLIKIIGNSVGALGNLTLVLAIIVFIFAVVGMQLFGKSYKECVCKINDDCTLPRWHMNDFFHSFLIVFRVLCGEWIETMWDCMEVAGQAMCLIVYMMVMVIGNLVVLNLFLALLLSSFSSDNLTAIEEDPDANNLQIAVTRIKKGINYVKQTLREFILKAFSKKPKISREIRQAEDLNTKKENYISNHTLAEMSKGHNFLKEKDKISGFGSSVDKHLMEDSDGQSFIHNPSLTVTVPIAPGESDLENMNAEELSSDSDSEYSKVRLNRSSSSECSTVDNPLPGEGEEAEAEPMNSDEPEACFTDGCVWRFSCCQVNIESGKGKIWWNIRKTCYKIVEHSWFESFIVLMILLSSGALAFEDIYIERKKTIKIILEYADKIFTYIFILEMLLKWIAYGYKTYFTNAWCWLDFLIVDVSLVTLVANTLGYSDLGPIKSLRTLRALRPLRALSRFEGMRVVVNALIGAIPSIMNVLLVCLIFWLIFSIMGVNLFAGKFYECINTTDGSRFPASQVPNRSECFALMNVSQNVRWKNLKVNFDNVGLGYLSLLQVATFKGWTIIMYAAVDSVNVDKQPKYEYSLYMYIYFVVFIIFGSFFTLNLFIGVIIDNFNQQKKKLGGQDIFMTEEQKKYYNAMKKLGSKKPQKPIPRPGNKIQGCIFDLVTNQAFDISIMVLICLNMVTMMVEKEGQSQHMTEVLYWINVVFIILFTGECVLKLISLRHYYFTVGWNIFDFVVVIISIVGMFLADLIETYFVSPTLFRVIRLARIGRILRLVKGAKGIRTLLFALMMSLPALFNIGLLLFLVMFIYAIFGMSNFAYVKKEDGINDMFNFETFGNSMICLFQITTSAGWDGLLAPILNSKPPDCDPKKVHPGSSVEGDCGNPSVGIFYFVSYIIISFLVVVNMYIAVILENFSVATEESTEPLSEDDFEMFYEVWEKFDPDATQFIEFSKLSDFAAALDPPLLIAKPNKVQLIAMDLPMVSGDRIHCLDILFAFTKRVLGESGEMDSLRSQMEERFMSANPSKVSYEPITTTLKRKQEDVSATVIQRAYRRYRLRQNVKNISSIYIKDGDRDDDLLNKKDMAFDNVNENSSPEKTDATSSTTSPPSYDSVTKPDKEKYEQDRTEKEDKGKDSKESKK
Sodium channel protein type 5 subunit alpha, sequence (Q14524 whole entry): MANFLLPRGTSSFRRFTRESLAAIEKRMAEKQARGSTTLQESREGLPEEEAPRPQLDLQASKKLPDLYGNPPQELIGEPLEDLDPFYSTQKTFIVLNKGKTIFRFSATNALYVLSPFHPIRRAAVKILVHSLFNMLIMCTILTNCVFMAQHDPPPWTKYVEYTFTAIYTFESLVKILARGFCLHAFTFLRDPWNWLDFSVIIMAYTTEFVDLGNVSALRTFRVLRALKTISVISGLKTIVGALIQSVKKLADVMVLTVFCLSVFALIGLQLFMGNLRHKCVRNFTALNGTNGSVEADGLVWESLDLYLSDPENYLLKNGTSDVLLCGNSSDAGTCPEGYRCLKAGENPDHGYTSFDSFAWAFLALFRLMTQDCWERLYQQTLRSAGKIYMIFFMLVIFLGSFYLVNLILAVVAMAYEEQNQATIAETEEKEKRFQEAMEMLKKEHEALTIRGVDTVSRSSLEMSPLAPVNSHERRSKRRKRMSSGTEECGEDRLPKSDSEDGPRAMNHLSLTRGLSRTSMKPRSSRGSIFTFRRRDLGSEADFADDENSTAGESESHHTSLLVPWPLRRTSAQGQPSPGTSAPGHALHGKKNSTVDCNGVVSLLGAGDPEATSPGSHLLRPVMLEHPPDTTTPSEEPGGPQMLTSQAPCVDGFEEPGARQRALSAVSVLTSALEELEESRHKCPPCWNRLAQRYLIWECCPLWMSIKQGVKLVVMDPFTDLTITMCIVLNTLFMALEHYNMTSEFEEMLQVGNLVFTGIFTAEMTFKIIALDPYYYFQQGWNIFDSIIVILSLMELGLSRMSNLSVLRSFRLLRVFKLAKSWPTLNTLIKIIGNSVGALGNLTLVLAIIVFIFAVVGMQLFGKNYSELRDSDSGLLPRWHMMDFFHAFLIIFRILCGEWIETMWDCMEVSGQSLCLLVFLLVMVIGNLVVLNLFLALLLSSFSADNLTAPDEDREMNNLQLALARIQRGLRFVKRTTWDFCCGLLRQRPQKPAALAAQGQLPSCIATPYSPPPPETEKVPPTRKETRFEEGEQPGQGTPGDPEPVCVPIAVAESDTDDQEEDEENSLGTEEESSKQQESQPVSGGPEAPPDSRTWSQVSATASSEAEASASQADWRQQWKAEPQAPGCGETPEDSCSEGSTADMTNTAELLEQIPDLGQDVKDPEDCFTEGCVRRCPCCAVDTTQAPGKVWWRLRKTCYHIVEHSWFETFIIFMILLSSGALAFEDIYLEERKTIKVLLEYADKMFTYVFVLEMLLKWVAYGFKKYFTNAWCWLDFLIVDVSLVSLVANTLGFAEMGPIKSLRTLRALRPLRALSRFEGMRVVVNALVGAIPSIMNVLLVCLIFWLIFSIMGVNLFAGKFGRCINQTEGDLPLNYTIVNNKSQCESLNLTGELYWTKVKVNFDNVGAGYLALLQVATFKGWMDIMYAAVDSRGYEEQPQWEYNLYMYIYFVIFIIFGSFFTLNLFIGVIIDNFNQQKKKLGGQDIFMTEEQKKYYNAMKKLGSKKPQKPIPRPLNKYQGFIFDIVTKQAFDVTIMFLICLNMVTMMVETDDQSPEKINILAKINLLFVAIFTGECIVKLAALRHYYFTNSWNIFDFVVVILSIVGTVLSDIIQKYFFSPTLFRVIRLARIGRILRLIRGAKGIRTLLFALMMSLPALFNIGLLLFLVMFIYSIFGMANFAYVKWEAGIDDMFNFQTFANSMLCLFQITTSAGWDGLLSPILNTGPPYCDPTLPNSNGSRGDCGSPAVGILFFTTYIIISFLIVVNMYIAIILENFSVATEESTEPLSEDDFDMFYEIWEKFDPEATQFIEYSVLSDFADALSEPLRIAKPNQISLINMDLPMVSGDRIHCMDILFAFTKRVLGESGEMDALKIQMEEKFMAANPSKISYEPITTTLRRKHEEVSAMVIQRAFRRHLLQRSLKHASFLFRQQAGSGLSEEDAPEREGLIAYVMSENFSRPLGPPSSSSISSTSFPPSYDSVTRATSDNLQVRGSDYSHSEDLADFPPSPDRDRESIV

remaining at 10 min, 0.5 µM [1]: 99%
fraction unbound [2]: 0.014
TIME [4]: 0.0275 h
concentration [7]: 44000 nM
Drug uptake(free) [9]: 84 nM
fraction unbound [10]: 0.039
concentration [11]: 990 nM
Activity (Mus musculus [12]): inactive
Cp(f) [14]: 616 nM
pIC50 [15]: < 4.30
TDI (Cytochrome P450 2D6): Not Active
SMILES: CC(C)COc1ccc(-c2cn(C)c3cc(C(=O)NS(C)(=O)=O)c(F)cc23)cn1
pIC50 [3]: 4.80
Activity (Mus musculus [5]): inactive
Activity (Mus musculus [6]): inactive
Activity [8]: Non-Toxic
Activity (Mus musculus [13]): Active

remaining at 10 min, 0.5 µM [1]: 100%
fraction unbound [2]: 0.002
concentration [20]: 2720 nM
pIC50 [21]: < 4.52
TIME [4]: 0.0125 h
Drug uptake(free) [24]: 95 nM
pIC50 [26]: 4.80
Activity (Mus musculus [30]): Active
pIC50 [31]: 5.32
pIC50 [15]: < 4.30
TDI (Cytochrome P450 2D6): Not Active
SMILES: CC(C)COc1ncc(-c2cn(C)c3cc(C(=O)NS(C)(=O)=O)ccc23)cc1Cl
concentration at 1 h [16]: 68000 nM
concentration at 1 h [17]: 27000 nM
Activity [18]: Non-Toxic
Cp(f) [19]: 6.6 nM
pIC50 [3]: 4.72
Activity (Mus musculus [22]): Active
Cp(f) [23]: 54 nM
Activity (Mus musculus [25]): inactive
Activity [27]: Non-Toxic
Activity (Mus musculus [28]): 25%
Activity (Mus musculus [29]): inactive
Activity (Mus musculus [13]): Active
